Experiment [1] addresses farnesyl protein transferase (Homo sapiens, UniProt P49354+P49356). Description: FPT IC50 (inhibition of farnesyl protein transferase, in vitro enzyme assay). The format is biochemical. The method, then: (§1) FPT IC50 (inhibition of farnesyl protein transferase, in vitro enzyme assay) and COS Cell IC50 (Cell-Based Assay) were determined following the assay procedures described in WO 95/10516, published Apr. 20, 1995. GGPT IC50 (inhibition of geranylgeranyl protein transferase, in vitro enzyme assay), Cell Mat Assay, and anti-tumor activity (in vivo anti-tumor studies) could be determined by the assay procedures described in WO 95/10516. The disclosure of WO 95/10516 is incorporated herein by reference thereto.

A further experiment deals with COS Cell. In words: COS Cell IC50 (Cell-Based Assay). On the procedure: as §1

On to `CCOC(=O)N1CCC(C2c3ncccc3CCc3cccnc32)CC1` [Example 6, ethyl 4-(6,11-dihydro-5H-cyclohepta[2,1-b:4,5-b']dipyridin-11-yl)-1-piperidinecarboxylate], for which the IC50 (as a rule, the concentration that gives 50% inhibition) in experiment [1] was more than 17000 nM.

In turn, `O=C(Cc1cc[n+]([O-])cc1)N1CCC(C2c3ncccc3CCc3cccnc32)CC1` [Example 8, 4-(6,11-dihydro-5H-cyclohepta[2,1-b: 4,5-b']dipyridin-11-yl)-1-(4-pyridinylacetyl) n1-oxide piperidine] showed an IC50 in experiment [1] of more than 1400 nM.

As to `O=C(Cc1cc[n+]([O-])cc1)N1CCC(C2c3ncc(Br)cc3CCc3cc(Br)cnc32)CC1` [Example 13, 4-(3,8-dibromo-6,11-dihydro-5H-cyclohepta [2,1-b:4,5-b']dipyridin-11-yl)-1-(4-pyridinylacetyl) n1-oxide piperidine], the results for the IC50 (in experiment [1]; in the experiment with COS Cell) were 28 nM and 125 nM, respectively.

For the compound `O=C(Cc1cc[n+]([O-])cc1)N1CCC(C2c3ncccc3CCc3cc(Br)cnc32)CC1` (stereo not drawn) [Example 17, 4-(3-bromo-6,11-dihydro-5H-cyclohepta [2,1-b:4,5-b']dipyridin-11-yl)-1-(4-pyridinylacetyl) n1-oxide piperidine], the IC50 in experiment [1] came out at 290 nM.

In turn, `Cc1cnc2c(c1)CCc1cccnc1C2C1CCN(C(=O)Cc2cc[n+]([O-])cc2)CC1` (stereo not drawn) [Example 18, 4-(3-methyl-6,11-dihydro-5H-cyclohepta [2,1-b:4,5-b']dipyridin-11-yl)-1-(4-pyridinylacetyl) n1-oxide piperidine] yielded an IC50 in experiment [1] of 160 nM.

The values are drawn from patent US6225322A, “Compounds useful for inhibition of farnesyl protein transferase” (Schering Corporation, priority 1998, dated 2001).
